The results in this text go back to PMC8929087, “Structural and Functional Characterization of a Novel Recombinant Antimicrobial Peptide from Hermetia illucens” (Current Issues in Molecular Biology, 2021).

One experiment has as its system E. coli BL21. Type of experiment: cell-based, Escherichia coli. Conditions: BL21, 24 h. How it is done: (§1) The […] antimicrobial activity of the recombinant C-15867 peptide was evaluated against three different bacterial strains: E. coli BL21, Staphylococcus aureus NCTC 12493 and Staphylococcus. epidermidis ATCC 12228. The minimum inhibitory concentration (MIC) was determined as the lowest concentration showing no visible growth after 24 h of incubation at 37 °C.
(§2) Figure 5 Determination of C-15867 minimum inhibitory concentration (MIC). All bacteria cells were grown in the presence of serial dilution of peptide from 248 µM to 0.56 µM and incubated at 37 °C for 24 h. The error bars on the graphs stand for the standard deviation from the mean of three experiments.
(§3) The procedure was performed using medium as negative control and cells approximately 5 × 10^5 CFU/mL as positive control to monitor the normal growth of bacteria.

In experiment [1] the test system is Staphylococcus aureus NCTC 12493. The experiment is classed as cell-based. Conditions: NCTC 12493, 24 h. How it is done: as §1, §2, §3
The subject of experiment [2] is Staphylococcus epidermidis ATCC 12228. Kind of experiment: Minimum inhibitory concentration (MIC) determination. The experiment is classed as cell-based. The following applies: serial dilution of peptide 248 to 0.5 μM, 24 h at 37 °C. How it is done: as §1, §2, §3
Experiment [3] relates to E. coli BL21 membrane permeability. In words: Crystal violet assay of membrane permeability. The experiment is classed as cell-based, Escherichia coli. Conditions: sub-mic concentration (9 µM) of peptide, LB broth, 37 °C, OD590 of supernatant. How it is done:
With C-15867 being a defensin-like AMP, we investigated the effect of the peptide, if any, on E. coli BL21 membrane permeability using the crystal violet assay. Bacterial cells were grown in the presence of a sub-mic concentration (9 µM) of the peptide and the uptake of crystal violet was monitored at different times of incubation.
Figure 6 Effect of C-15867 on E. coli BL21 membrane permeability. The uptake of crystal violet was calculated in the presence of sub-mic concentration (9 µM) of the peptide.
The alteration in membrane permeability was detected by crystal violet assay. Bacterial cells were grown in LB broth at 37 °C in the presence of […] peptide for 1 and 3 h. Subsequently, the cells were harvested at 9300× g for 5 min and then the cells were resuspended in 1× PBS containing 10 µg/mL of crystal violet. The cell suspension was incubated for 10 min at 37 °C and then centrifuged at 13,400× g for 15 min and the OD590 of the supernatant was measured at the spectrophotometer. Control samples were prepared similarly without treatment. The OD value of the crystal violet solution, which was originally used in the assay, was taken and it was considered as 100%. The percentage of crystal violet uptake of all the samples was quantified according to the following formula: OD value of the sample/OD value of the crystal violet solution 100×.

The next experiment deals with E. coli Bl21 cells. In words: Scanning electron microscopy (SEM) of cell morphology. Type of experiment: cell-based, Escherichia coli. Conditions: sub-mic concentration (9 µM) of peptide, 3 h incubation at 37 °C, compared with untreated cells. As for the experimental part:
The effect of C-15867 on the morphology of E. coli BL21 cells was also assessed by SEM microscopy analyses. Bacterial cells were treated with a sub-mic concentration (9 µM) of the antimicrobial peptide and SEM analyses were carried out after 3 h of incubation in comparison with untreated cells.
The cell wall and the cell surface were rough gradually forming pores with subsequent leakage of cytoplasmic material confirming the disrupting effect of the antimicrobial peptide on the bacterial membrane.
Figure 7 Scanning electron microscopy of E. coli BL2_1 cells following 3 h treatment with a sub-mic concentration (9 µM) of the antimicrobial peptide C-15867 (d–f) in comparison with untreated cells (a–c). The scale bar was 2 µm in panel (a), 500nm in panel (b,c) and 1µm in panel (d–f).
E. coli BL21 cells were grown in the absence and in the presence of native C15867 peptide at 37 °C for 3 h. Samples from each culture were fixed in 2.5% glutaraldehyde solution for 16 h. Following the incubation, the bacterial cells were washed with 0.1 M PBS (pH 7.2) and dehydrated in a series of ethanol solutions ranging from 30 to 100%, followed by three washes with 100% ethanol. E. coli cells were deposited onto glass substrate first sputter coated with a thin layer of Au-Pd alloy (Denton Vacuum Desk V Magnetron Sputtering) to allow subsequent morphological characterization using a FEI Nova NanoSEM 450.

In brackets after ≈: the same amount, converted by molar mass. Where a SMILES comes first, the peptide text is derived from it. Bridges are numbered along the chain shown (N, C = ends).

As for `CC[C@H](C)[C@@H]1NC(=O)[C@@H]2CSSC[C@@H](C(=O)N[C@@H](CCCNC(=N)N)C(=O)O)NC(=O)[C@H](C(C)C)NC(=O)[C@@H]3CSSC[C@H](NC(=O)[C@@H]4CCCN4C(=O)[C@H](C)NC(=O)[C@H](CCCNC(=N)N)NC(=O)CNC(=O)[C@H](Cc4ccccc4)NC(=O)[C@H](Cc4ccccc4)NC(=O)[C@@H]4CCCN4C(=O)[C@H](CCCCN)NC(=O)[C@H](CC(C)C)NC(=O)[C@H](CC(C)C)NC(=O)[C@H](CC(=O)O)NC(=O)[C@@H](NC(=O)[C@@H](NC(=O)[C@@H](N)C(C)C)[C@@H](C)O)CSSC[C@H](NC(=O)[C@H](Cc4ccccc4)NC(=O)CNC(=O)[C@H]([C@@H](C)O)NC(=O)[C@H](CCCNC(=N)N)NC(=O)[C@H](CCCCN)NC(=O)[C@H](CCCCN)NC(=O)[C@H](Cc4ccccc4)NC(=O)[C@H](CCCNC(=N)N)NC(=O)[C@H](CC(C)C)NC1=O)C(=O)N[C@@H](CO)C(=O)N[C@@H](CCCNC(=N)N)C(=O)N[C@@H](CCC(N)=O)C(=O)N[C@@H](CC(N)=O)C(=O)N[C@@H](C(C)C)C(=O)N3)C(=O)N[C@@H](CCSC)C(=O)N[C@@H](CCSC)C(=O)N[C@@H](Cc1c[nH]cn1)C(=O)N2` [C-15867] (H-VTCDLLKPFFGRAPCMMHCILRFKKRTGFCSRQNVCVCR-OH; disulfide 3-30, 15-36, 19-38; N-terminus and C-terminus assumed), the “minimum inhibitory concentration (MIC)” value (in the experiment on E. coli BL21; in experiment [1]) was 36 µM (≈ 164 µg/mL) each time. Further, in experiment [2], the “antimicrobial effect (in words)” value is given as “strong antimicrobial effect”. In addition, the “increase in the uptake of crystal violet” value is given as 22% in experiment [3] (1 h of treatment) and 34% in experiment [3] (3 h of treatment). In addition, in the experiment with E. coli Bl21 cells, the “cell morphology by SEM (in words)” value is reported as “severe morphological changes”.
